In the supplement of paper PMC4862054:

Legend:
Conditions in all cases: incubation time: 72 h
HCC1599 [1] = assay: drug sensitivity score (DSS), CellTiter-Glo (DSS (AUC-based score)); higher = stronger drug effect (viability inhibition or cytotoxicity); extreme values may be limits of the assay
How it was run: (§1)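 Breast cancer cell lines were seeded in 20 µl suspension into 384-well plates already holding compound and incubated for 72 h. Each compound was tested at 5 concentrations in 10-fold steps across its own 10,000-fold range. Plates were normalised to 0.1 % DMSO and a positive kill control after CellTox Green and then CellTiter-Glo readings. The area under the fitted dose-response curve served as the basis for the drug sensitivity score.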

SK-BR-3 [2] = assay: as above
How it was run: as §1

MDA-MB-468 [3] = assay: as above
How it was run: as §1

MDA-MB-231 [4] = assay: as above
How it was run: as §1

MDA-MB-436 = assay: normalised viability (% of control), CellTiter-Blue; higher = more viable cells (about 100 = DMSO control)
How it was run: (§2)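 Breast cancer cell lines were treated for 72 h in 384-well format and measured by CellTiter-Blue fluorescence at 560/590 nm. Results were normalised per plate to vehicle (100) and a positive kill control (0). The entry is normalised viability at a single listed concentration of the series.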

HCC1599 [5] = assay: as above
How it was run: as §2

BT-474 = assay: as above
How it was run: as §2

HCC1143 = assay: as above
How it was run: as §2

HDQ-P1 = assay: as above
How it was run: as §2

DU-4475 = assay: as above
How it was run: as §2

HCC1937 = assay: as above
How it was run: as §2

MFM-223 = assay: as above
How it was run: as §2

CAL-51 = assay: as above
How it was run: as §2

CAL-148 = assay: as above
How it was run: as §2

Hs578T = assay: as above
How it was run: as §2

BT-549 = assay: as above
How it was run: as §2

CAL-85-1 = assay: as above
How it was run: as §2

SK-BR-3 [6] = assay: as above
How it was run: as §2

CAL-120 = assay: as above
How it was run: as §2

MDA-MB-453 = assay: as above
How it was run: as §2

MDA-MB-468 [7] = assay: as above
How it was run: as §2

MDA-MB-231 [8] = assay: as above
How it was run: as §2

Compound `CC(C)(C)Cn1c(N)nc2ccc(-c3[nH]c(C(C)(C)C)nc3-c3ccc(F)cc3)nc21` has a drug sensitivity score (HCC1599 [1]) of 0, a drug sensitivity score (SK-BR-3 [2]) of 0.963 and a drug sensitivity score (MDA-MB-468 [3]) of 2.74. It also gave a drug sensitivity score (MDA-MB-231 [4]) of 0.

`Cn1cc(C[C@@H](N)C(=O)O)c2ccccc21` [1-methyl-D-tryptophan] gave a drug sensitivity score (HCC1599 [1]) of 0, a drug sensitivity score (SK-BR-3 [2]) of 0 and a drug sensitivity score (MDA-MB-468 [3]) of 0. For the same compound, the drug sensitivity score (MDA-MB-231 [4]) was 0.

`CC[C@H](CC#N)OC(=O)N[C@@H](C)c1cccc(NC(=O)Nc2ccc(-c3cnco3)c(OC)c2)c1` [AVN944] showed a drug sensitivity score (HCC1599 [1]) of 11.4, a drug sensitivity score (SK-BR-3 [2]) of 9.68 and a drug sensitivity score (MDA-MB-468 [3]) of 17.1. The drug sensitivity score (MDA-MB-231 [4]) was 9.58.

`Cc1c(N)nc([C@H](CC(N)=O)NC[C@H](N)C(N)=O)nc1C(=O)N[C@H](C(=O)N[C@H](C)[C@@H](O)[C@H](C)C(=O)N[C@H](C(=O)NCCc1nc(-c2nc(C(=O)NCCC[S+](C)C)cs2)cs1)[C@@H](C)O)[C@@H](OC1OC(CO)C(O)C(O)C1OC1OC(CO)C(O)C(OC(N)=O)C1O)c1cnc[nH]1` (stereo not given in full) [Bleomycin] was tested, and the normalised viability (MDA-MB-436; 10 nM) was 92.3%, the normalised viability (MDA-MB-436; 1000 nM) was 79% and the normalised viability (MDA-MB-436; 10000 nM) was 44.7%. It also gave a normalised viability (HCC1599 [5]; 10 nM) of 134%, a normalised viability (HCC1599 [5]; 1000 nM) of 112% and a normalised viability (HCC1599 [5]; 10000 nM) of 118%. The normalised viability (BT-474; 10 nM) was 102%, the normalised viability (BT-474; 1000 nM) was 97.9% and the normalised viability (BT-474; 10000 nM) was 98%. It also gave a normalised viability (HCC1143; 10 nM) of 74.6%, a normalised viability (HCC1143; 1000 nM) of 64.2% and a normalised viability (HCC1143; 10000 nM) of 49.4%. It also gave a normalised viability (HDQ-P1; 3 nM) of 80.9%, a normalised viability (HDQ-P1; 30 nM) of 88.5% and a normalised viability (HDQ-P1; 100 nM) of 27.8%. For the same compound, the normalised viability (DU-4475; 3 nM) was 117%, the normalised viability (DU-4475; 30 nM) was 84.4% and the normalised viability (DU-4475; 100 nM) was 116%. It also gave a normalised viability (HCC1937; 10 nM) of 92.2%, a normalised viability (HCC1937; 1000 nM) of 54.7% and a normalised viability (HCC1937; 10000 nM) of 28.2%. For the same compound, the normalised viability (MFM-223; 10 nM) was 106%, the normalised viability (MFM-223; 1000 nM) was 107% and the normalised viability (MFM-223; 10000 nM) was 100%. For the same compound, the normalised viability (CAL-51; 3 nM) was 97.6%, the normalised viability (CAL-51; 30 nM) was 96% and the normalised viability (CAL-51; 100 nM) was 96.3%. It also gave a normalised viability (CAL-148; 3 nM) of 88%, a normalised viability (CAL-148; 30 nM) of 82.5% and a normalised viability (CAL-148; 100 nM) of 87%. The normalised viability (Hs578T; 10 nM) was 90.3%, the normalised viability (Hs578T; 1000 nM) was 64.3% and the normalised viability (Hs578T; 10000 nM) was 50%. It also gave a normalised viability (BT-549; 10 nM) of 87.5%, a normalised viability (BT-549; 1000 nM) of 57.1% and a normalised viability (BT-549; 10000 nM) of 62.4%. The normalised viability (CAL-85-1; 3 nM) was 101%, the normalised viability (CAL-85-1; 30 nM) was 94.9% and the normalised viability (CAL-85-1; 100 nM) was 96.6%. The normalised viability (SK-BR-3 [6]; 10 nM) was 89.6%, the normalised viability (SK-BR-3 [6]; 1000 nM) was 99.1% and the normalised viability (SK-BR-3 [6]; 10000 nM) was 89.5%. It also gave a normalised viability (CAL-120; 10 nM) of 94.4%, a normalised viability (CAL-120; 1000 nM) of 78.5% and a normalised viability (CAL-120; 10000 nM) of 67.7%. It also gave a normalised viability (MDA-MB-453; 3 nM) of 103%, a normalised viability (MDA-MB-453; 30 nM) of 106% and a normalised viability (MDA-MB-453; 100 nM) of 100%. The normalised viability (MDA-MB-468 [7]; 10 nM) was 94.6%, the normalised viability (MDA-MB-468 [7]; 1000 nM) was 86.6% and the normalised viability (MDA-MB-468 [7]; 10000 nM) was 72.7%. The normalised viability (MDA-MB-231 [8]; 10 nM) was 88.7%, the normalised viability (MDA-MB-231 [8]; 1000 nM) was 70% and the normalised viability (MDA-MB-231 [8]; 10000 nM) was 60.3%. The drug sensitivity score (HCC1599 [1]) was 0, the drug sensitivity score (SK-BR-3 [2]) was 2.43 and the drug sensitivity score (MDA-MB-468 [3]) was 0. The drug sensitivity score (MDA-MB-231 [4]) was 0.
